Measurements: patent US8937091B2 (Japan Science and Technology Agency, priority 2009, dated 2015)

What was measured:
[1] = tested on: SOCE (store operated calcium entry) in CHO cells; test: Assay of SOCE (store operated calcium entry)-inhibiting action; assay type: cell-based, Chinese hamster; details: CHO cells, thapsigargin; for inhibition at 10 µM / inhibition at 30 µM / inhibition at 100 µM: Cricetulus griseus, CHO, read-out: SOCE level (percentage of inhibition)
In short: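 CHO cells in calcium-free BSS received compound, then 1 μM thapsigargin 2 min later to deplete stores; after 9 min, 2 mM calcium chloride (final) added. Percent inhibition of the rise in intracellular calcium determined at various compound concentrations.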

[2] = tested on: IICR (IP3 induced calcium release) in CHO cells; test: Assay of IICR (IP3 induced calcium release)-inhibiting action; assay type: cell-based, Chinese hamster; details: CHO cells, 10 μM ATP; for inhibition at 10 µM / inhibition at 30 µM / inhibition at 100 µM: Cricetulus griseus, CHO, read-out: IICR level (percentage of inhibition)
In short: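 CHO cell medium replaced with calcium-containing BSS; compound added 1 min later, then 10 μM ATP after a further 2 min. Percent inhibition of the ATP-evoked rise in intracellular calcium determined at each compound concentration.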

Row | SMILES | inhibition at 10 µM ([1]; test compound 10 μmol) [%] | inhibition at 30 µM ([1]; test compound 30 μmol) [%] | inhibition at 100 µM ([1]; test compound 100 μmol) [%] | inhibition at 10 µM ([2]; test compound 10 μmol) [%] | inhibition at 30 µM ([2]; test compound 30 μmol) [%] | inhibition at 100 µM ([2]; test compound 100 μmol) [%] | SOCE level (percentage of inhibition) ([1]; test compound 10 μmol) [%] | SOCE level (percentage of inhibition) ([1]; test compound 30 μmol) [%] | SOCE level (percentage of inhibition) ([1]; test compound 100 μmol) [%] | IICR level (percentage of inhibition) ([2]; test compound 10 μmol) [%] | IICR level (percentage of inhibition) ([2]; test compound 30 μmol) [%] | IICR level (percentage of inhibition) ([2]; test compound 100 μmol) [%]
1 | O=C(CCN1CCCCC1CO)c1ccc(Br)s1 (stereo not drawn) [Example 350] | 10 | 2 | 3 | 60 | 50 | 70 | – | – | – | – | – | –
2 | O=C(CCNCCc1ccccc1)c1ccc(Br)s1 [Example 351, 2-phenethylaminoethyl-5-bromo-2-thienylketone] | 0 | 9 | 32 | 30 | 0 | 0 | – | – | – | – | – | –
3 | O=C(CCNCCCO)c1ccc(Br)s1 [Example 352, 2-(3-hydroxypropyl)aminoethyl-5-bromo-2-thienylketone] | 0 | 0 | 34 | 30 | 0 | 0 | – | – | – | – | – | –
4 | O=C(CCNC(O)c1ccccc1)c1ccc(Br)s1 (stereo not drawn) [Example 353, 2-(1-hydroxy-1-phenylmethyl)aminoethyl-5-bromo-2-thienylketone] | 0 | 0 | 7 | 60 | 0 | 20 | – | – | – | – | – | –
5 | O=C(CCNCCN(CCO)CCC(=O)c1ccc(Br)s1)c1ccc(Br)s1 [Example 354, 2-(N-5-bromothionylethylaminoethyl-N-hydroxyethyl)aminoethyl-5-bromo-2-thienylketone] | 0 | 10 | 10 | 0 | 0 | 60 | – | – | – | – | – | –
6 | O=C(CCNC(c1ccccc1)C(O)c1ccccc1)c1ccc(Br)s1 (stereo not drawn) [Example 355, 2-(2-hydroxy-1,2-diphenyl-ethyl)aminoethyl-5-bromo-2-thienylketone] | 0 | 16 | 16 | 0 | 0 | 50 | – | – | – | – | – | –
7 | O=C(CCNC(CO)Cc1ccccc1)c1ccc(Br)s1 (stereo not drawn) [Example 357, 2-(N-hydroxy-1-benzylethyl)aminoethyl-5-bromo-2-thienylketone] | 0 | 9 | 47 | 0 | 0 | 70 | – | – | – | – | – | –
8 | O=C(CCNCCO)c1ccc(Br)s1 [Example 358, 2-(N-hydroxyethyl)aminoethyl-5-bromo-2-thienylketone] | – | – | – | – | – | – | 0 | 4 | 23 | 0 | 0 | 70
9 | O=C(CCN(CCO)c1ccccc1)c1ccc(Br)s1 [Example 359, 2-(N-hydroxyethyl-N-phenyl)aminoethyl-5-bromo-2-thienylketone] | 0 | 24 | 57 | 0 | 0 | 70 | – | – | – | – | – | –
10 | CC(O)CNCCC(=O)c1ccc(Br)s1 (stereo not drawn) [Example 360, 2-(N-2-hydroxypropyl)aminoethyl-5-bromo-2-thienylketone] | 10 | 0 | 20 | 0 | 0 | 70 | – | – | – | – | – | –
11 | O=C(CCN1CCC(CCO)CC1)c1ccc(Br)s1 [Example 361, 2-(4-hydroxyethylpiperadino)ethyl-5-bromo-2-thienylketone] | 22 | 2 | 19 | 22 | 0 | 19 | – | – | – | – | – | –
12 | CCN(CO)CCC(=O)c1ccc(Br)s1 [Example 362, 2-(N-hydroxymethyl-N-ethyl)aminoethyl-5-bromo-2-thienylketone] | 11 | 13 | 23 | 0 | 0 | 70 | – | – | – | – | – | –
